Numbers after ± are expanded uncertainties.
Experiment: Molar enthalpy of transition or fusion
Settings: Crystal; Adiabatic calorimetry

Molar enthalpy of transition or fusion [kJ/mol]	Compound
19.9 ± 0.68	CC(C)(C)c1ccc(-c2ccccc2)cc1 [4-(1,1-dimethylethyl)-1,1'-biphenyl]
12.3 ± 0.28	Cc1ccc(-c2ccccc2)cc1 [4-methylbiphenyl]

From the NIST ThermoML archive (doi:10.1016/j.jct.2010.05.002)
